Assay results published in PMC8909834, “An Orally Bioavailable and Highly Efficacious Inhibitor of CDK9/FLT3 for the Treatment of Acute Myeloid Leukemia” (Cancers, 2022).

Experiments:
[1] = target: T1, TAOK1 (Homo sapiens, UniProt Q7L7X3); test: Kinase Hotspot radiolabel assay; type: biochemical; details: read-out: % Residual Activity
T1 construct: purchased Reaction Biology Corporation (Kinase HotSpot)

[2] = tested on: MV4-11 tumor xenografts; test: In vivo xenograft study; details: for MST (median survival time): vehicle MST = 38 days; for mice with unmeasurable tumor size (zero tumor volume): day 29, n = 7
Protocol: In vivo xenograft study. The in vivo efficacy of CDDD11-8 on tumors developed in mice from AML cells was evaluated by engrafting 5 × 10^6 MV4-11 cells suspended in a 1:1 mixture of Matrigel^TM (Becton Dickinson, Corning, NY, USA) and serum-free medium (100 µL) subcutaneously into the right flank of female BALB/c nude (nu/nu) mice (6–7 weeks). When the tumor reached a volume of 100–200 mm^3, mice were randomized into 3 groups (n = 7). Mice in G1 received vehicle (acetate buffer at pH 4.74), while mice in G2 and G3 received CDDD11-8, at 75 and 125 mg/kg, respectively. Both CDDD11-8 and vehicle were administered orally, once a day for 28 days. Clinical signs of toxicity were observed daily; body weights were measured daily during the dosing period and every other day thereafter. Tumor dimensions, i.e., length (L) and width (W), were measured every other day using Vernier calipers. The tumor volume was calculated using the formula 0.52 × L × W^2, where L and W are perpendicularly measured diameters and L ≥ W. Mice were humanely killed by CO2 asphyxiation when the tumor volume reached 1500 mm^3 or the percent loss of body weight exceeded 15%, or the study was completed.
Data were analyzed statistically using GraphPad Prism version 7. Descriptive statistics (frequency, mean, percentage) were used to report tumor volume, body weights, daily change in body weights from day 1 of dosing, and the ratio of tumor volume between treatment and control groups (T/C). Statistical differences in tumor volume between treated and control groups were analyzed using two-way ANOVA, where days on which the tumor volume was measured and treatments were the two independent factors, with a two-tailed significance cut-off level of p < 0.05. Tumor growth inhibition (TGI) was calculated as %TGI = [((VCD − VCB) − (VTD − VTB))/(VCD − VCB)] × 100, where VCD and VTD were the tumor volumes of the vehicle and treated groups on the calculated day, respectively, and VCB and VTB were the tumor volumes of the vehicle and treated groups at baseline (day 1). Kaplan–Meier survival analysis was performed, and group comparisons were done with the Gehan–Breslow–Wilcoxon test with Bonferroni correction method.

T1 sequence (Q7L7X3 whole entry): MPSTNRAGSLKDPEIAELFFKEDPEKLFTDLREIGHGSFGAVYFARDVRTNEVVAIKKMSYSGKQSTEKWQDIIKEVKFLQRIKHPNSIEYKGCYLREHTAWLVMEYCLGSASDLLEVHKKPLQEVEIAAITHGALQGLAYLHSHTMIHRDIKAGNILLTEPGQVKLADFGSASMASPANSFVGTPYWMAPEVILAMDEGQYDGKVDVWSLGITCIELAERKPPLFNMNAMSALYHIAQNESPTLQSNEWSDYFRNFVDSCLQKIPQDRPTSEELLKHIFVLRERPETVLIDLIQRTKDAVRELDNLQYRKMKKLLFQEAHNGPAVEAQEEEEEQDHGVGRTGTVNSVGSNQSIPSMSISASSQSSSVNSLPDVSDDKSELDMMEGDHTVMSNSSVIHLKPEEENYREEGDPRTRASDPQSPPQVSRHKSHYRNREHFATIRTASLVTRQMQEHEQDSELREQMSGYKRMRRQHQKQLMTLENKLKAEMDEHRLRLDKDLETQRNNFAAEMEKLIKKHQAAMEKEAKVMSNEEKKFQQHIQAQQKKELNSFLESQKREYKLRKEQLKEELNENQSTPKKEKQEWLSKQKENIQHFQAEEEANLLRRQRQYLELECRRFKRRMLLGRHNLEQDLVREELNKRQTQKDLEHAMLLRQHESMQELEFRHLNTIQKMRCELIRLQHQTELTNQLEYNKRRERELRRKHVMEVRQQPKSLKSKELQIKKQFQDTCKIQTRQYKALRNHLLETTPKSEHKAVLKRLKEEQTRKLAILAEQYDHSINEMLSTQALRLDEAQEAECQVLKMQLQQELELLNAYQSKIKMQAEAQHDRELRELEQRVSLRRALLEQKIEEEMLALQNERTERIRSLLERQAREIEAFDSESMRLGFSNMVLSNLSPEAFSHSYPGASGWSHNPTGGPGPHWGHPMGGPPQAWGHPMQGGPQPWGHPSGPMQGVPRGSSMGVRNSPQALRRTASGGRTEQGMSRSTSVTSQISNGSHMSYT

Cc1cnc(N[C@H]2CC[C@H](N)CC2)nc1-c1cnc2ccc(-c3ccccc3)cn12 [CDDD11-8]
remaining activity at 1 µM [1]: 45.5%
day from which inhibition of tumor growth was statistically significant vs vehicle ([2]; 75 mg/kg PO QD): 9 days
increase in the life span ([2]; 75 mg/kg PO QD 28 days): 29%
MST (median survival time) ([2]; 75 mg/kg PO QD 28 days): 49 days
T/C% ([2]; 75 mg/kg PO QD, day 1): 101%
% TGI ([2]; 75 mg/kg PO QD, day 3): 92%
T/C% ([2]; 75 mg/kg PO QD, day 3): 75%
% TGI ([2]; 75 mg/kg PO QD, day 5): 101%
T/C% ([2]; 75 mg/kg PO QD, day 5): 60%
% TGI ([2]; 75 mg/kg PO QD, day 7): 95%
T/C% ([2]; 75 mg/kg PO QD, day 7): 50%
% TGI ([2]; 75 mg/kg PO QD, day 9): 115%
T/C% ([2]; 75 mg/kg PO QD, day 9): 32%
% TGI ([2]; 75 mg/kg PO QD, day 11): 121%
T/C% ([2]; 75 mg/kg PO QD, day 11): 22%
% TGI ([2]; 75 mg/kg PO QD, day 13): 127%
T/C% ([2]; 75 mg/kg PO QD, day 13): 12%
% TGI ([2]; 75 mg/kg PO QD, day 15): 129%
T/C% ([2]; 75 mg/kg PO QD, day 15): 8%
% TGI ([2]; 75 mg/kg PO QD, day 17): 128%
T/C% ([2]; 75 mg/kg PO QD, day 17): 6%
% TGI ([2]; 75 mg/kg PO QD, day 19): 125%
T/C% ([2]; 75 mg/kg PO QD, day 19): 5%
% TGI ([2]; 75 mg/kg PO QD, day 21): 119%
T/C% ([2]; 75 mg/kg PO QD, day 21): 5%
% TGI ([2]; 75 mg/kg PO QD, day 23): 112%
T/C% ([2]; 75 mg/kg PO QD, day 23): 5%
% TGI ([2]; 75 mg/kg PO QD, day 25): 105%
T/C% ([2]; 75 mg/kg PO QD, day 25): 9%
% TGI ([2]; 75 mg/kg PO QD, day 27): 96%
T/C% ([2]; 75 mg/kg PO QD, day 27): 15%
% TGI ([2]; 75 mg/kg PO QD, day 29): 92%
mice with unmeasurable tumor size (zero tumor volume) ([2]; 75 mg/kg PO QD): one
animals with tumor regression ([2]; 75 mg/kg PO QD, starting on day 9, n = 7): two out of seven animals
day from which inhibition of tumor growth was statistically significant vs vehicle ([2]; 125 mg/kg PO QD): 7 days
increase in the life span ([2]; 125 mg/kg PO QD 28 days): 45%
MST (median survival time) ([2]; 125 mg/kg PO QD 28 days): 55 days
T/C% ([2]; 125 mg/kg PO QD, day 1): 102%
% TGI ([2]; 125 mg/kg PO QD, day 3): 127%
T/C% ([2]; 125 mg/kg PO QD, day 3): 66%
% TGI ([2]; 125 mg/kg PO QD, day 5): 133%
T/C% ([2]; 125 mg/kg PO QD, day 5): 47%
% TGI ([2]; 125 mg/kg PO QD, day 7): 122%
T/C% ([2]; 125 mg/kg PO QD, day 7): 36%
% TGI ([2]; 125 mg/kg PO QD, day 9): 142%
T/C% ([2]; 125 mg/kg PO QD, day 9): 16%
% TGI ([2]; 125 mg/kg PO QD, day 11): 137%
T/C% ([2]; 125 mg/kg PO QD, day 11): 12%
% TGI ([2]; 125 mg/kg PO QD, day 13): 139%
T/C% ([2]; 125 mg/kg PO QD, day 13): 4%
% TGI ([2]; 125 mg/kg PO QD, day 15): 136%
T/C% ([2]; 125 mg/kg PO QD, day 15): 3%
% TGI ([2]; 125 mg/kg PO QD, day 17): 133%
T/C% ([2]; 125 mg/kg PO QD, day 17): 2%
% TGI ([2]; 125 mg/kg PO QD, day 19): 130%
T/C% ([2]; 125 mg/kg PO QD, day 19): 2%
% TGI ([2]; 125 mg/kg PO QD, day 21): 123%
T/C% ([2]; 125 mg/kg PO QD, day 21): 2%
% TGI ([2]; 125 mg/kg PO QD, day 23): 117%
T/C% ([2]; 125 mg/kg PO QD, day 23): 1%
% TGI ([2]; 125 mg/kg PO QD, day 25): 114%
T/C% ([2]; 125 mg/kg PO QD, day 25): 1%
% TGI ([2]; 125 mg/kg PO QD, day 27): 112%
T/C% ([2]; 125 mg/kg PO QD, day 27): 1%
% TGI ([2]; 125 mg/kg PO QD, day 29): 109%
animals with tumor regression still maintained ([2]; 125 mg/kg PO QD, day 29): six out of seven mice
mice with unmeasurable tumor size (zero tumor volume) ([2]; 125 mg/kg PO QD): three
animals with tumor regression ([2]; 125 mg/kg PO QD, from day 7, n = 7): all the mice
tolerability ([2]; 75 and 125 mg/kg PO QD 28 days, tumor-bearing mice): well tolerated
